Measurements from patent US20190111059A1, “COMPOSITIONS AND METHODS FOR TREATING AUTISM SPECTRUM DISORDER” (Marinus Pharmaceuticals, Inc., priority 2017, published 2019).
Where a name gives a salt, the structure may show the parent alone.

Tests used:
[1] = system: children with non-syndromic autism spectrum disorder (ASD) and language impairment; experiment: Randomized placebo-controlled trial: Ohio Autism Clinical Impression Scale (OACIS); format: in vivo, human; conditions: lower = less severity
Description: The Ohio Autism Clinical Impression Scale (“OACIS”) is an observer-rated scale sensitive to clinically meaningful changes in ASD symptoms. […] Severity of each symptom was rated by the first author at baseline and at the final assessment by observing the entire assessment of verbal communication. In validation studies a 0.5-point change was considered clinically meaningful. This two-arm double-blind randomized placebo-controlled parallel study with a 1:1 allocation was performed at Arkansas Children's Research Institute (Little Rock, Ark., USA) from 4 Jun. 2012 to 22 Nov. 2013. Those confirmed to have language impairment were randomized to the folinic acid or placebo group and a fasting blood sample was obtained. Randomization was performed using a random number generator with a block size of four. The research pharmacists had exclusive access to the randomization allocation. After breakfast, the participants returned for language, developmental and behavioral assessments. Following these assessments the family was given the 12 weeks of the intervention and was instructed on its administration. Language, developmental and behavioral assessments were repeated after 12 weeks of treatment. The target dose of the intervention (INN: DL folinic acid calcium salt; USAN: leucovorin calcium) was 2 mg kg^−1 per day (maximum 50 mg per day) in two equally divided doses with half of the target dose given during the first 2 weeks. Dye-free, milk-product-free, vegetarian capsules were provided in three strengths (5, 10 and 25 mg) by Lee Silsby Compounding Pharmacy (Cleveland Heights, Ohio, USA). Certificate of analysis was provided for each capsule strength by an independent analytical service (Eagle Analytical Services, Houston, Tex., USA) for each batch of capsules produced. In all cases, potency was at least 99%. Secondary outcomes. Secondary outcome measures included the Ohio Autism Clinical Impression Scale (OACIS), Vineland Adaptive Behavior Scale 2nd Edition (VABS) Survey Interview Form and several questionnaires. Parents and teachers were asked to complete the Aberrant Behavior Checklist (ABC), Social Responsiveness Scale (SRS) and Behavioral Assessment System for Children 2nd Edition (BASC). Only parents were asked to complete the Autism Impact Measure (AIM) and Autism Symptoms Questionnaire (ASQ). Secondary outcome measures were analyzed using the mixed-model regression. Because of the large number of secondary outcomes, correction for multiple comparisons was conducted using the false discovery rate.

[2] = system: children with non-syndromic autism spectrum disorder (ASD) and language impairment; experiment: Randomized placebo-controlled trial: Autism Symptoms Questionnaire (ASQ); format: in vivo, human; conditions: lower = less autism symptoms; for ASQ Stereotypic behavior, estimated effect / ASQ Total score, estimated effect: calcium salt
Description: The Autism Symptoms Questionnaire (“ASQ) is a 34-item checklist (The Center for Autism and Related Disorders) that assesses social interaction (12 items, range 0-4), stereotyped behavior (7 items, range 0-4), communication symptoms (15 items, range 0-5) and total symptoms (34 items, […]). […] This two-arm double-blind randomized placebo-controlled parallel study with a 1:1 allocation was performed at Arkansas Children's Research Institute (Little Rock, Ark., USA) from 4 Jun. 2012 to 22 Nov. 2013. Parent and teacher questionnaires were requested at baseline and 6 and 12 weeks after starting treatment. Parents were asked to deliver baseline questionnaires to teachers or therapists. After the first visit, questionnaires were mailed to the parents and teachers at least 1 week prior to the target date of completion. Parents were asked to bring the completed teacher and parent 12-week questionnaires to the final assessment. Other questionnaires were returned in a preaddressed postage-paid envelope. The target dose of the intervention (INN: DL folinic acid calcium salt; USAN: leucovorin calcium) was 2 mg kg^−1 per day (maximum 50 mg per day) in two equally divided doses with half of the target dose given during the first 2 weeks. Dye-free, milk-product-free, vegetarian capsules were provided in three strengths (5, 10 and 25 mg) by Lee Silsby Compounding Pharmacy (Cleveland Heights, Ohio, USA). Certificate of analysis was provided for each capsule strength by an independent analytical service (Eagle Analytical Services, Houston, Tex., USA) for each batch of capsules produced. In all cases, potency was at least 99%. Secondary outcomes. Secondary outcome measures included the Ohio Autism Clinical Impression Scale (OACIS), Vineland Adaptive Behavior Scale 2nd Edition (VABS) Survey Interview Form and several questionnaires. Parents and teachers were asked to complete the Aberrant Behavior Checklist (ABC), Social Responsiveness Scale (SRS) and Behavioral Assessment System for Children 2nd Edition (BASC). Only parents were asked to complete the Autism Impact Measure (AIM) and Autism Symptoms Questionnaire (ASQ). Secondary outcome measures were analyzed using the mixed-model regression. Because of the large number of secondary outcomes, correction for multiple comparisons was conducted using the false discovery rate.

[3] = 2 mg kg^−1 per day, 12 weeks, baseline 4.4
[4] = vs placebo, mixed-model regression
[5] = vs placebo, mixed-model regression, listed as folinic acid

**Q.** Nc1nc2c(c(=O)[nH]1)N(C=O)C(CNc1ccc(C(=O)N[C@@H](CCC(=O)O)C(=O)O)cc1)CN2 (mixture of isomers) [Folinic acid, DL folinic acid calcium salt] was tested. Which “OACIS Sensory sensitivity, 12-week assessment mean” value ([1]; 2 mg kg^−1 per day, 12 weeks, baseline 1.6) did it give?
**A.** Its value is 1.4 Severity.

**Q.** And the “OACIS Restricted interest, 12-week assessment mean” value ([1]; 2 mg kg^−1 per day, 12 weeks, baseline 2.3)?
**A.** The value was 2.0 Severity.

**Q.** And the “OACIS Anxiety, 12-week assessment mean” value ([1]; 2 mg kg^−1 per day, 12 weeks, baseline 2.5)?
**A.** Its value is 2.3 Severity.

**Q.** And the “OACIS Repetitive behavior, 12-week assessment mean” value ([1]; 2 mg kg^−1 per day, 12 weeks, baseline 3.2)?
**A.** Its value is 2.5 Severity.

**Q.** What about the “OACIS Non-verbal communication, 12-week assessment mean” value ([1]; 2 mg kg^−1 per day, 12 weeks, baseline 3.6) of the same compound?
**A.** Its value is 3.3 Severity.

**Q.** And the “OACIS Aberrant behavior, 12-week assessment mean” value ([1]; 2 mg kg^−1 per day, 12 weeks, baseline 3.8)?
**A.** The value was 3.4 Severity.

**Q.** And the “OACIS Hyperactivity, 12-week assessment mean” value ([1]; 2 mg kg^−1 per day, 12 weeks, baseline 4.1)?
**A.** The value was 3.8 Severity.

**Q.** And the “OACIS Social, 12-week assessment mean” value ([1]; 2 mg kg^−1 per day, 12 weeks, baseline 4.3)?
**A.** The value was 3.8 Severity.

**Q.** What about the “OACIS Autistic behavior, 12-week assessment mean” value [1, 3] of the same compound?
**A.** Its value is 4.0 Severity.

**Q.** And the “OACIS Verbal communication, 12-week assessment mean” value [1, 3]?
**A.** Its value is 3.8 Severity.

**Q.** What about the “OACIS Aberrant behavior, estimated effect” value [1, 4] of the same compound?
**A.** The value was −0.3 Severity.

**Q.** What about the “OACIS Anxiety, estimated effect” value [1, 4] of the same compound?
**A.** Its value is −0.1 Severity.

**Q.** And the “OACIS Autistic behavior, estimated effect” value [1, 4]?
**A.** The value was −0.2 Severity.

**Q.** And the “OACIS Hyperactivity, estimated effect” value [1, 4]?
**A.** The value was −0.3 Severity.

**Q.** What about the “OACIS Non-verbal communication, estimated effect” value [1, 4] of the same compound?
**A.** Its value is −0.0 Severity.

**Q.** And the “OACIS Repetitive behavior, estimated effect” value [1, 4]?
**A.** The value was −0.4 Severity.

**Q.** What about the “OACIS Restricted interest, estimated effect” value [1, 4] of the same compound?
**A.** Its value is −0.2 Severity.

**Q.** What about the “OACIS Sensory sensitivity, estimated effect” value [1, 4] of the same compound?
**A.** The value was −0.3 Severity.

**Q.** And the “OACIS Social, estimated effect” value [1, 4]?
**A.** Its value is −0.1 Severity.

**Q.** And the “OACIS Verbal communication, estimated effect” value [1, 4]?
**A.** The value was −0.2 Severity.

**Q.** And the “ASQ Stereotypic behavior, 12-week assessment mean” value ([2]; 2 mg kg^−1 per day, 12 weeks, baseline 3.1)?
**A.** The value was 3.2 Raw Score.

**Q.** And the “ASQ Social, 12-week assessment mean” value ([2]; 2 mg kg^−1 per day, 12 weeks, baseline 3.5)?
**A.** Its value is 3.3 Raw Score.

**Q.** What about the “ASQ Communication, 12-week assessment mean” value ([2]; 2 mg kg^−1 per day, 12 weeks, baseline 4.7) of the same compound?
**A.** Its value is 4.7 Raw Score.

**Q.** What about the “ASQ Total score, 12-week assessment mean” value ([2]; 2 mg kg^−1 per day, 12 weeks, baseline 11.3) of the same compound?
**A.** Its value is 11.2 Raw Score.

**Q.** What about the “ASQ Communication, estimated effect” value [2, 4] of the same compound?
**A.** Its value is 0.0 Raw Score.

**Q.** What about the “ASQ Social, estimated effect” value [2, 4] of the same compound?
**A.** The value was −0.1 Raw Score.

**Q.** What about the “ASQ Stereotypic behavior, estimated effect” value [2, 4] of the same compound?
**A.** The value was −0.2 Raw Score.

**Q.** And the “ASQ Total score, estimated effect” value [2, 4]?
**A.** Its value is −0.3 Raw Score.

**Q.** And the “ASQ Stereotypic behavior, estimated effect” value [2, 5]?
**A.** The value was “significantly improved”.

**Q.** What about the “ASQ Total score, estimated effect” value [2, 5] of the same compound?
**A.** The value was “significantly improved”.
